According to patent publication EP4737451A1 (Dong Wha Pharm. Co., Ltd., priority 2023, dated 2025):
pIC50: −log10 of the molar value.

Legend:
[1] = target: T1, IRAK1 enzyme (Homo sapiens, UniProt P51617); assay: IRAK1 enzyme activity inhibition (ADP-Glo, Promega kit); format: biochemical; conditions: for inhibition at 0.1 µM: test compound 0.1 uM
T1 construct: purchased Promega VA7477
Method: An experiment on IRAK1 enzyme activity inhibition of the compound of the present invention was conducted.
An IRAK1 enzyme kit (purchased from Promega, product number: VA7477) was used to dilute a mixed solution between 0.1 µg/µL of protein kinase B (AKT), which is an enzyme-reactive substrate, and 1.25 mM of ATP with a reaction buffer (40 mM Tris-HCl, pH 7.5; 20 mM MgCl2; 0.1 mg/mL BSA; 50 µM DTT) according to the instructions, so as to dispense 2 µL in a 384-well white plate, and then to add 1 µL of a test compound, which was gradient diluted starting from 1 mM, to a 384-well white plate. After that, an IRAK1 enzyme was diluted with a reaction buffer to a final concentration of 5 ng/µL, then 2 µL/well was dispensed into a 384-well white plate and reacted at 37°C for 60 minutes. After completion of a reaction, an ADP-GloTM enzyme test kit (purchased from Promega, product number: V9102) was used to add 5 µL of ADP-Glo reaction reagent and cause a reaction at 37°C for 40 minutes, and then 10 µL of enzyme chromogenic reagent was added again to measure a luminescence signal using equipment for measuring absorbance (THECAN, Microplate Reader). An activity inhibition rate was calculated from a measured value, and a 50% inhibition concentration (IC50 value) was analyzed through a non-linear regression analysis based on the % inhibition for each concentration of the test compound, and is shown in Table 3.

[2] = target: T2, IRAK4 enzyme (Homo sapiens, UniProt Q9NWZ3); assay: IRAK4 enzyme activity inhibition (ADP-Glo, Promega kit); format: biochemical
T2 construct: purchased Promega V2621
T2 sequence (Q9NWZ3 1-460): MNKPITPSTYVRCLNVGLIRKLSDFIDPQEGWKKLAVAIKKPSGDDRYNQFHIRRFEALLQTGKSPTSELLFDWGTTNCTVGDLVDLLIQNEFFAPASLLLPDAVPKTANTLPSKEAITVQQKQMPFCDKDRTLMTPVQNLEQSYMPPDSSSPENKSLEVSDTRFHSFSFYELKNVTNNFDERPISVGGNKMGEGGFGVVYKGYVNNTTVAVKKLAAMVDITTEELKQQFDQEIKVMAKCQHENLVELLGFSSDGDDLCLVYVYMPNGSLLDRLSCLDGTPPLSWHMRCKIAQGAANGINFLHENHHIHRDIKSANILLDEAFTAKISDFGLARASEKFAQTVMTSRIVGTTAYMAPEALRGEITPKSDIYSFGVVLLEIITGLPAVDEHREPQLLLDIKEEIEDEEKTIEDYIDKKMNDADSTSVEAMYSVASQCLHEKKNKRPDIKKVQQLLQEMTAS
Method: An experiment on IRAK4 enzyme activity inhibition of the compound of the present invention was conducted.
An IRAK4 enzyme kit (purchased from Promega, product number: V2621) was used to dilute a mixed solution between 0.1 µg/µL of myelin basic protein (MBP), which is an enzyme-reactive substrate, and 1.25 mM of ATP with a reaction buffer (40 mM Tris-HCl, pH 7.5; 20 mM MgCl2; 0.1 mg/mL BSA; 50 µM DTT) according to the instructions, so as to dispense 2 µL in a 384-well white plate, and then to add 1 µL of a test compound, which was gradient diluted starting from 1 mM, to a 384-well plate. After that, an IRAK4 enzyme was diluted with a reaction buffer to a final concentration of 5 ng/µL, then 2 µL/well was dispensed into a 384-well white plate and reacted at 37°C for 60 minutes. After completion of a reaction, an ADP-GloTM enzyme test kit (purchased from Promega, product number: V9102) was used to add 5 µL of ADP-Glo reaction reagent and cause a reaction at 37°C for 40 minutes, and then 10 µL of enzyme chromogenic reagent was added again to measure a luminescence signal using equipment for measuring absorbance (THECAN, Microplate Reader). An activity inhibition rate was calculated from a measured value, and a 50% inhibition concentration (IC50 value) was analyzed through a non-linear regression analysis based on the % inhibition for each concentration of the test compound, and is shown in Table 2.

T1 sequence (P51617 whole entry): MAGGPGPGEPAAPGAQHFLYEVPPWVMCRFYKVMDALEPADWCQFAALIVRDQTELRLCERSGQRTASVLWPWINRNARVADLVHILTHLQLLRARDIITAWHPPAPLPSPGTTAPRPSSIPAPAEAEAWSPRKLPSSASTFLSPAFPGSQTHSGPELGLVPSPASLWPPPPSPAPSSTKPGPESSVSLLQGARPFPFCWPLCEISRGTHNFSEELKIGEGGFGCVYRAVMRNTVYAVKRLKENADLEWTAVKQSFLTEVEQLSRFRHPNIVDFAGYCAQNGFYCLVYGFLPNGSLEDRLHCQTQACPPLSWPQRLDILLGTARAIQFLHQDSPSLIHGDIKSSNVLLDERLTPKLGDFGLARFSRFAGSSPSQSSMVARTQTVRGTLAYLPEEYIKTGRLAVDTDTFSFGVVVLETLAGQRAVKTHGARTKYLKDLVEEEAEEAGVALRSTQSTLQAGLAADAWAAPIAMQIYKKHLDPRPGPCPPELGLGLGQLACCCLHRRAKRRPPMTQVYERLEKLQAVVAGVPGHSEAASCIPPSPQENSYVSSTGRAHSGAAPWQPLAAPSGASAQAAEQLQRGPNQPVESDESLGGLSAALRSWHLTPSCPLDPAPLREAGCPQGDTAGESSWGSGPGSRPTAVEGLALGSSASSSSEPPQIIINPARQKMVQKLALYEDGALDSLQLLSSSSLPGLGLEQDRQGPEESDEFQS

| Compound | inhibition at 0.1 µM [1] [%] | inhibition at 1 µM ([1]; test compound 1 uM) [%] | inhibition at 0.1 µM ([2]; test compound 0.1 uM) [%] | inhibition at 1 µM ([2]; test compound 1 uM) [%] | also measured |
| --- | --- | --- | --- | --- | --- |
| CC(C)(O)CCn1cc2cc(NC(=O)c3cccc(S(N)(=O)=O)c3)c(-c3ccc(CN4CCOCC4)cc3)cc2n1 [Example 39, N-(2-(3-hydroxy-3-methylbutyl)-6-(4-(morpholinomethyl)phenyl)-2H-indazol-5-yl)-3-sulfamoylbenzamide] | 23 | 35.2 | 69.7 |  |  |
| CS(=O)(=O)CCn1cc2cc(NC(=O)c3cccc([N+](=O)[O-])c3)c(N3CCOCC3)cc2n1 [Example 13, N-(2-(2-(methylsulfonyl)ethyl)-6-morpholino-2H-indazol-5-yl)-3-nitrobenzamide] | 1.3 | 0 | 18.6 | 19.2 |  |
| CC(C)(O)CCn1cc2cc(NC(=O)c3cccc(S(N)(=O)=O)c3)c(-c3ccc(C(N)=O)cc3)cc2n1 [Example 46, N-(6-(4-carbamoylphenyl)-2-(3-hydroxy-3-methylbutyl)-2H-indazol-5-yl)-3-sulfamoylbenzamide] | 3.2 |  | 57.5 |  |  |
| CC(C)(O)CCn1cc2cc(NC(=O)c3cccc([N+](=O)[O-])c3)c(-c3ccsc3)cc2n1 [Example 8, N-(2-(3-hydroxy-3-methylbutyl)-6-(thiophen-3-yl)-2H-indazol-5-yl)-3-nitrobenzamide] |  |  | 21.7 | 50.3 |  |
| CNC(=O)CNC(=O)c1ccc(-c2cc3nn(CCC(C)(C)O)cc3cc2NC(=O)c2cccc([N+](=O)[O-])c2)cc1 [Example 41, N-(2-(3-hydroxy-3-methylbutyl)-6-(4-((2-(methylamino)-2-oxoethyl)carbamoyl)phenyl)-2H-indazol-5-yl)-3-nitrobenzamide] | 0.4 |  | 69 |  |  |
| CC(C)(O)CCn1cc2cc(NC(=O)c3cccc(-c4nccs4)c3)c(N3CCOCC3)cc2n1 [Example 27, N-(2-(3-hydroxy-3-methylbutyl)-6-morpholino-2H-indazol-5-yl)-3-(thiazol-2-yl)benzamide] | 17.6 | 25.3 | 57.3 |  |  |
| CN(C)CCn1cc2cc(NC(=O)c3cccc([N+](=O)[O-])c3)c(N3CCOCC3)cc2n1 [Example 10, N-(2-(2-(dimethylamino)ethyl)-6-morpholino-2H-indazol-5-yl)-3-nitrobenzamide] |  |  | 49.5 | 83.4 | pIC50 [2]: 7.00 |
| CC(C)(O)CCn1cc2cc(NC(=O)c3cncc([N+](=O)[O-])c3)c(-c3ccsc3)cc2n1 [Example 7, N-(2-(3-hydroxy-3-methylbutyl)-6-(thiophen-3-yl)-2H-indazol-5-yl)-5-nitronicotinamide] |  |  | 28.1 | 57.7 |  |
| CC(C)(O)CCn1cc2cc(NC(=O)c3cccc(-c4cn[nH]c4)n3)c(N3CCOCC3)cc2n1 [Example 20, N-(2-(3-hydroxy-3-methylbutyl)-6-morpholino-2H-indazol-5-yl)-6-(1H-pyrazol-4-yl)picolinamide] | 16.5 | 57 | 89.6 |  | pIC50 [2]: 7.81 |
| CC(C)(O)CCn1cc2cc(NC(=O)c3cc(F)cc([N+](=O)[O-])c3)c(N3CCOCC3)cc2n1 [Example 24, 3-fluoro-N-(2-(3-hydroxy-3-methylbutyl)-6-morpholino-2H-indazol-5-yl)-5-nitrobenzamide] | 26.9 | 45.5 | 83.9 |  | pIC50 [2]: 7.88 |
| N-(1-(3-hydroxy-3-methylbutyl)-6-morpholino-1H-indazol-5-yl)-3-nitrobenzamide [Example 28] |  |  |  |  | IRAK1 %enzyme inhibition (1 uM) ([1]; test compound 1 uM): 9.10%; IRAK4 %enzyme inhibition (0.1 uM) ([2]; test compound 0.1 uM): 56.1%; IRAK4 %enzyme inhibition (1 uM) ([2]; test compound 1 uM): 89.9% |
| O=C(Nc1cc2cn(CCN3CCOCC3)nc2cc1N1CCOCC1)c1cccc([N+](=O)[O-])c1 [Example 19, N-(6-morpholino-2-(2-morpholinoethyl)-2H-indazol-5-yl)-3-nitrobenzamide] |  | 38.7 | 84.7 | 90.1 | pIC50 [2]: 7.50 |
| CC(C)(O)CCn1cc2cc(NC(=O)c3cccc(-c4ccsc4)n3)c(N3CCOCC3)cc2n1 [Example 36, N-(2-(3-hydroxy-3-methylbutyl)-6-morpholino-2H-indazol-5-yl)-6-(thiophen-3-yl)picolinamide] | 5.7 | 12.9 | 55.2 |  |  |
| CC(C)(O)CCn1cc2cc(NC(=O)c3cccc(C(N)=O)c3)c(-c3ccc(C(=O)NCc4ccoc4)cc3)cc2n1 [Example 49, N-(6-(4-((furan-3-ylmethyl)carbamoyl)phenyl)-2-(3-hydroxy-3-methylbutyl)-2H-indazol-5-yl)isophthalamide] | 27.7 | 31.6 | 55.4 |  |  |
| CN(C)CCn1cc2cc(NC(=O)c3cccc(-c4nccs4)c3)c(-c3ccsc3)cc2n1 [Example 12, N-(2-(2-(dimethylamino)ethyl)-6-(thiophen-3-yl)-2H-indazol-5-yl)-3-(thiazol-2-yl)benzamide] |  |  | 31.5 |  |  |
| CC(C)(O)CCn1cc2cc(NC(=O)c3cncc([N+](=O)[O-])c3)c(-c3ccoc3)cc2n1 [Example 5, N-(6-(furan-3-yl)-2-(3-hydroxy-3-methylbutyl)-2H-indazol-5-yl)-5-nitronicotinamide] |  |  | 27.9 | 35.4 |  |
| O=C(Nc1cc2cn(CCN3CCCCC3)nc2cc1N1CCOCC1)c1cccc([N+](=O)[O-])c1 [Example 9, N-(6-morpholino-2-(2-(piperidin-1-yl)ethyl)-2H-indazol-5-yl)-3-nitrobenzamide] |  |  | 56.9 | 79.5 |  |
| CC(C)(O)CCn1cc2cc(NC(=O)c3cccc([N+](=O)[O-])c3)c(-c3ccoc3)cc2n1 [Example 4, N-(6-(furan-3-yl)-2-(3-hydroxy-3-methylbutyl)-2H-indazol-5-yl)-3-nitrobenzamide] |  |  | 42.1 | 67.4 |  |
| CC(C)(O)CCn1cc2cc(NC(=O)c3cccc(C(N)=O)c3)c(-c3ccoc3)cc2n1 [Example 6, N-(6-(furan-3-yl)-2-(3-hydroxy-3-methylbutyl)-2H-indazol-5-yl)isophthalamide] |  |  | 35.5 | 67 |  |
| CONC(=O)c1ccc(-c2cc3nn(CCC(C)(C)O)cc3cc2NC(=O)c2cccc(S(N)(=O)=O)c2)cc1 [Example 44, N-(2-(3-hydroxy-3-methylbutyl)-6-(4-(methoxycarbamoyl)phenyl)-2H-indazol-5-yl)-3-sulfamoylbenzamide] |  |  | 61.9 |  |  |
| COCCn1cc2cc(NC(=O)c3cccc([N+](=O)[O-])c3)c(N3CCOCC3)cc2n1 [Example 11, N-(2-(2-methoxyethyl)-6-morpholino-2H-indazol-5-yl)-3-nitrobenzamide] |  |  | 40.4 | 56.9 |  |
| CC(C)(O)CCn1cc2cc(NC(=O)c3cccc(S(N)(=O)=O)c3)c(-c3ccc(C(=O)NCC(F)(F)F)cc3)cc2n1 [Example 42, N-(2-(3-hydroxy-3-methylbutyl)-6-(4-((2,2,2-trifluoroethyl)carbamoyl)phenyl)-2H-indazol-5-yl)-3-sulfamoylbenzamide] |  |  | 65.1 |  |  |
